Measurements taken from publication PMC12560828, “Chemical structure drives developmental toxicity of alkyl-substituted naphthalenes in zebrafish” (Environment international, 2025).
Several values for one entry are separate records, joined by “and”; a condition that tells them apart may be missing. Equal entries are not always repeated.

Experiments:
[1] = Body burden measurement (GC-MS/MS) and concentration uptake ratio, vial exposure; assay type: in vivo, Danio rerio; settings: zebrafish (Danio rerio), whole embryos (32 pooled, ethyl acetate extract), other: waterborne exposure of embryos in sealed vials, 20 μM exposure, 32 pooled embryos, 0.5 mL extract, single replicates, read-out: measured concentration in embryo extract
Method: (§1) Body burden was measured for exposure to five chemicals at two timepoints: 24 and 48 hpf. […] The exposure concentration was chosen as it was the maximum possible concentration that ensured enough viable animals for collection at 48 hpf and allowed direct comparison of chemical uptake at the same exposure concentration.
(§2) Chemicals were exposed at 20 μM following the exposure procedure detailed in section 1.3, 24 vials per chemical. At 24 hpf, embryos were pooled in groups of 32 embryos (combining embryos from 4 vials) into 1.5 mL polypropylene RINO-safe lock tubes (n = 3 per chemical treatment, n = 3 per control). Tubes were briefly placed on ice to reduce embryo movement (<1 min); the remaining medium was removed; the tube was then flash frozen in liquid nitrogen and stored at −20 °C until extraction. Embryos in the remaining vials were plated as previously described in section 1.3 until collection at 48 hpf following the same procedure as 24 hpf collections (n = 3 per chemical treatment, n = 1 control).
(§3) Tissue extraction was performed as previously reported ([Rude et al., 2025]). Each sample was spiked with 25 μL internal standard in ethyl acetate and 100 μL of 1 mm glass beads (Next Advance, Troy, NY United States) were added to the RINO-safe lock tubes containing thawed tissue samples and left on ice for 10 min 250 mg of Na2SO4 and 200 μL of ethyl acetate were added to each tube and vortexed. Tubes were homogenized at speed 8 for 6 min in a Bullet Blender (Next Advance, Troy, NY, United States). 300 μL of ethyl acetate was added to each tube and the homogenization step was repeated until no pieces of non-homogenized fish tissue remained. Samples were then centrifuged for 10 min at 4 °C, 1600g. Sample supernatant (0.5 mL) was collected into amber vials and stored at 4 °C until chemical analysis.
(§4) Samples were analyzed for quantitation and identification of 161 PAHs. The method was performed with an Agilent 7890 gas chromatograph (GC), with a 7000C triple quadrupole mass spectrometer (MS/MS) using an Agilent J&W PAH select (30 m × 250 μm × 0.15 μm GC column). Calibration for each analyte utilized at least a 4-point (range: 4–7, median 6 points, n = 161) curve with R^2 ≥ 0.99. Specific instrument conditions were modified from [Anderson et al. (2015)] and are detailed in Table S3. GC–MS/MS data was analyzed using MassHunter Quantitative Analysis v.B.06.00 SP1 build 6.0.388.1 software (Agilent Corp. Wilmington,DE) ([Anderson et al., 2015]). Dynamic muti-reaction monitoring mode was used during analyses, and all PAHs were identified using analytical standards obtained from multiple sources (Table S1). Collison energies were optimized for each individual unsubstituted PAH, alkylation series (C1, C2, etc.), and when possible, specific alkylation group (i.e. methyl, ethyl, etc.).
(§5) Body burden concentrations based on average embryo wet weight at each timepoint were determined by the equation below. Total measured chemical was calculated from ng/mL concentrations times sample volume (0.5 mL). Bodyburdennmol/mgbw=total measured chemicalnmol/number of fish32×average body weightmg
(§6) Average body weights at 24 hpf and 48 hpf were assumed to be 0.31 mg and 0.26 mg, respectively as determined previously ([Rericha et al., 2024]). Statistical analysis to compare time points within chemicals was performed using a two-sided Student’s t-test (p-value ≤ 0.05). An ANOVA with a follow-up Dunn’s test was used to compare body burden between chemicals at 24 hpf (p-value ≤ 0.05). Body burden concentrations at 24 hpf were compared to the estimated percent effect of each measured chemical at the exposure concentration used for body burden analysis (20 μM). These estimates were made using the fitted concentration-response curves previously described in section 2.3.2.2.
(§7) Concentration uptake ratios between vial exposures and 96-well plate exposures were compared using a two-sided Student’s t-test, p-values ≤ 0.05 were considered significant. […]

zebrafish embryos = assay: as above; assay type: in vivo, Danio rerio; settings: 20 μM exposure; for measured concentration in embryo extract: 32 pooled embryos, 0.5 mL extract, single replicates
Method: as §1, §2, §3, §4, §5, §6, §7

In the case of `Cc1cccc2c(C)cccc12` [1,5-dimethylnaphthalene], the concentration at 24 hpf, 20 μM [1] is reported as 29200 ng/mL, the concentration at 48 hpf, 20 μM [1] is reported as 9160 ng/mL and the “measured concentration in embryo extract” value (zebrafish embryos; 24 hpf) is reported as 28000 ng/mL and 23900 ng/mL. For the same compound, the “measured concentration in embryo extract” value (zebrafish embryos; 48 hpf) was 9300 ng/mL and 7200 ng/mL.

In the case of `Cc1ccc2cccc(C)c2c1` [1,7-dimethylnaphthalene], the concentration at 24 hpf, 20 μM [1] is reported as 34600 ng/mL, the concentration at 48 hpf, 20 μM [1] is reported as 11300 ng/mL and the body burden concentration (zebrafish embryos; 24 hpf) is reported as “highest concentration”. For the same compound, the “measured concentration in embryo extract” value (zebrafish embryos; 24 hpf) was 33000 ng/mL and 33300 ng/mL and the “measured concentration in embryo extract” value (zebrafish embryos; 48 hpf) was 11600 ng/mL and 10100 ng/mL.

In the case of `Cc1cc(C)c2c(C)cccc2c1` [2,4,5-trimethylnaphthalene], the concentration at 24 hpf, 20 μM [1] is reported as 9620 ng/mL, the “percent reduction in body burden between 24 and 48 hpf” value (zebrafish embryos) is reported as 46% and the “measured concentration in embryo extract” value (zebrafish embryos; 24 hpf) is reported as 9270 ng/mL and 6860 ng/mL. The “measured concentration in embryo extract” value (zebrafish embryos; 48 hpf) was 4950 ng/mL and 4550 ng/mL and 2080 ng/mL.

In the case of `Cc1ccc2ccc(C)cc2c1` [2,7-dimethylnaphthalene], the concentration at 24 hpf, 20 μM [1] is reported as 26500 ng/mL, the concentration at 48 hpf, 20 μM [1] is reported as 8890 ng/mL and the “measured concentration in embryo extract” value (zebrafish embryos; 24 hpf) is reported as 19900 ng/mL. For the same compound, the “measured concentration in embryo extract” value (zebrafish embryos; 48 hpf) was 8080 ng/mL and 7630 ng/mL.
